Data published in ChEMBL document CHEMBL3994622, “Design and synthesis of new RAF kinase-inhibiting antiproliferative quinoline derivatives. Part 2: Diarylurea derivatives” (Eur J Med Chem, 2017).

What was measured:
Type in all cases: functional
[1] = tested on: RPMI-8226; experiment: Growth inhibition of human RPMI8226 cells assessed as cell growth at 0.1 uM incubated for 48 hrs by sulforhodamine B assay relative to control; conditions: RPMI-8226, 48 h, read-out: Activity
[2] = tested on: A498; experiment: Growth inhibition of human A498 cells assessed as cell growth at 1 uM incubated for 48 hrs by sulforhodamine B assay relative to control; conditions: A498, 48 h, read-out: Activity
[3] = tested on: HOP-92; experiment: Growth inhibition of human HOP92 cells assessed as cell growth at 1 uM incubated for 48 hrs by sulforhodamine B assay relative to control; conditions: HOP-92, 48 h, read-out: Activity
[4] = tested on: HT-29; experiment: Growth inhibition of human HT-29 cells assessed as cell growth at 10 uM incubated for 48 hrs by sulforhodamine B assay relative to control; conditions: HT-29, 48 h, read-out: Activity
[5] = tested on: OVCAR-8; experiment: Growth inhibition of human OVCAR8 cells assessed as cell growth at 0.1 uM incubated for 48 hrs by sulforhodamine B assay relative to control; conditions: OVCAR-8, 48 h, read-out: Activity
[6] = tested on: SNB-75; experiment: Growth inhibition of human SNB75 cells assessed as cell growth at 100 uM incubated for 48 hrs by sulforhodamine B assay relative to control; conditions: SNB-75, 48 h, read-out: Activity
[7] = tested on: LOX IMVI; experiment: Growth inhibition of human LOXIMVI cells assessed as cell growth at 0.01 uM incubated for 48 hrs by sulforhodamine B assay relative to control; conditions: read-out: Activity
[8] = tested on: SW-620; experiment: Growth inhibition of human SW620 cells assessed as cell growth at 0.1 uM incubated for 48 hrs by sulforhodamine B assay relative to control; conditions: SW-620, 48 h, read-out: Activity
[9] = tested on: A498; experiment: Growth inhibition of human A498 cells assessed as cell growth at 100 uM incubated for 48 hrs by sulforhodamine B assay relative to control; conditions: A498, 48 h, read-out: Activity
[10] = tested on: MCF7; experiment: Growth inhibition of human MCF7 cells assessed as cell growth at 0.01 uM incubated for 48 hrs by sulforhodamine B assay relative to control; conditions: MCF7, 48 h, read-out: Activity
[11] = tested on: IGROV-1; experiment: Growth inhibition of human IGROV1 cells assessed as cell growth at 100 uM incubated for 48 hrs by sulforhodamine B assay relative to control; conditions: IGROV-1, 48 h, read-out: Activity
[12] = tested on: MDA-MB-231; experiment: Growth inhibition of human MDA-MB-231 cells assessed as cell growth at 100 uM incubated for 48 hrs by sulforhodamine B assay relative to control; conditions: MDA-MB-231, 48 h, read-out: Activity
[13] = tested on: Hs-578T; experiment: Growth inhibition of human Hs 578T cells assessed as cell growth at 1 uM incubated for 48 hrs by sulforhodamine B assay relative to control; conditions: read-out: Activity
[14] = tested on: IGROV-1; experiment: Growth inhibition of human IGROV1 cells assessed as cell growth at 10 uM incubated for 48 hrs by sulforhodamine B assay relative to control; conditions: IGROV-1, 48 h, read-out: Activity
[15] = tested on: NCI-H322M; experiment: Growth inhibition of human NCI-H322M cells assessed as cell growth at 10 uM incubated for 48 hrs by sulforhodamine B assay relative to control; conditions: read-out: Activity
[16] = tested on: TK-10; experiment: Growth inhibition of human TK10 cells assessed as cell growth at 10 uM incubated for 48 hrs by sulforhodamine B assay relative to control; conditions: TK-10, 48 h, read-out: Activity
[17] = tested on: CCRF-CEM; experiment: Growth inhibition of human CCRF-CEM cells assessed as cell growth at 30 uM incubated for 48 hrs by sulforhodamine B assay relative to control; conditions: read-out: Activity
[18] = tested on: UACC-257; experiment: Growth inhibition of human UACC257 cells assessed as cell growth at 0.03 uM incubated for 48 hrs by sulforhodamine B assay relative to control; conditions: UACC-257, 48 h, read-out: Activity
[19] = tested on: SF-539; experiment: Growth inhibition of human SF539 cells assessed as cell growth at 0.003 uM incubated for 48 hrs by sulforhodamine B assay relative to control; conditions: SF-539, 48 h, read-out: Activity
[20] = tested on: Hs-578T; experiment: Growth inhibition of human Hs 578T cells assessed as cell growth at 3 uM incubated for 48 hrs by sulforhodamine B assay relative to control; conditions: read-out: Activity
[21] = tested on: RPMI-8226; experiment: Growth inhibition of human RPMI8226 cells assessed as cell growth at 0.03 uM incubated for 48 hrs by sulforhodamine B assay relative to control; conditions: RPMI-8226, 48 h, read-out: Activity
[22] = tested on: SK-MEL-2; experiment: Growth inhibition of human SK-MEL-2 cells assessed as cell growth at 30 uM incubated for 48 hrs by sulforhodamine B assay relative to control; conditions: SK-MEL-2, 48 h, read-out: Activity
[23] = tested on: NCI-H23; experiment: Growth inhibition of human NCI-H23 cells assessed as cell growth at 30 uM incubated for 48 hrs by sulforhodamine B assay relative to control; conditions: NCI-H23, 48 h, read-out: Activity
[24] = tested on: SK-OV-3; experiment: Growth inhibition of human SKOV3 cells assessed as cell growth at 0.003 uM incubated for 48 hrs by sulforhodamine B assay relative to control; conditions: SK-OV-3, 48 h, read-out: Activity
[25] = tested on: NCI-H460; experiment: Growth inhibition of human NCI-H460 cells assessed as cell growth at 3 uM incubated for 48 hrs by sulforhodamine B assay relative to control; conditions: NCI-H460, 48 h, read-out: Activity
[26] = tested on: SR; experiment: Growth inhibition of human SR cells assessed as cell growth at 3 uM incubated for 48 hrs by sulforhodamine B assay relative to control; conditions: read-out: Activity
[27] = tested on: SK-MEL-2; experiment: Growth inhibition of human SK-MEL-2 cells assessed as cell growth at 0.003 uM incubated for 48 hrs by sulforhodamine B assay relative to control; conditions: SK-MEL-2, 48 h, read-out: Activity
[28] = tested on: PC-3; experiment: Growth inhibition of human PC3 cells assessed as cell growth at 0.003 uM incubated for 48 hrs by sulforhodamine B assay relative to control; conditions: PC-3, 48 h, read-out: Activity
[29] = tested on: RXF 393; experiment: Growth inhibition of human RXF393 cells assessed as cell growth at 3 uM incubated for 48 hrs by sulforhodamine B assay relative to control; conditions: RXF 393, 48 h, read-out: Activity
[30] = tested on: SF-539; experiment: Growth inhibition of human SF539 cells assessed as cell growth at 0.3 uM incubated for 48 hrs by sulforhodamine B assay relative to control; conditions: SF-539, 48 h, read-out: Activity
[31] = tested on: M14; experiment: Growth inhibition of human M14 cells assessed as cell growth at 0.03 uM incubated for 48 hrs by sulforhodamine B assay relative to control; conditions: M14, 48 h, read-out: Activity
[32] = tested on: SN12C; experiment: Growth inhibition of human SN12C cells assessed as cell growth at 0.3 uM incubated for 48 hrs by sulforhodamine B assay relative to control; conditions: read-out: Activity
[33] = tested on: MDA-MB-435; experiment: Growth inhibition of human MDA-MB-435 cells assessed as cell growth at 3 uM incubated for 48 hrs by sulforhodamine B assay relative to control; conditions: MDA-MB-435, 48 h, read-out: Activity
[34] = tested on: PC-3; experiment: Growth inhibition of human PC3 cells assessed as cell growth at 3 uM incubated for 48 hrs by sulforhodamine B assay relative to control; conditions: PC-3, 48 h, read-out: Activity
[35] = tested on: HCC 2998; experiment: Growth inhibition of human HCC2998 cells assessed as cell growth at 0.3 uM incubated for 48 hrs by sulforhodamine B assay relative to control; conditions: HCC 2998, 48 h, read-out: Activity

## COc1cc2cc(Oc3ccc(NC(=O)Nc4ccc(Cl)c(Cl)c4)cc3)c(C)nc2cc1OC
[1]
  growth at 0.1 µM: 101%
[2]
  growth at 1 µM: 74%
[3]
  growth at 1 µM: 91%
[4]
  growth at 10 µM: -49%
[5]
  growth at 0.1 µM: 100%
[6]
  growth at 100 µM: -59%
[7]
  growth at 0.01 µM: 95%
[8]
  growth at 0.1 µM: 101%
[9]
  growth at 100 µM: -56%
[10]
  growth at 0.01 µM: 95%
[11]
  growth at 100 µM: -15%
[12]
  growth at 100 µM: -100%
[13]
  growth at 1 µM: 113%
[14]
  growth at 10 µM: 30%

## COc1cc2cc(Oc3ccc(NC(=O)Nc4cc(C(F)(F)F)cc(C(F)(F)F)c4)cc3)c(C)nc2cc1OC
[1]
  growth at 0.1 µM: 93%
[2]
  growth at 1 µM: 74%
[3]
  growth at 1 µM: 54%
[4]
  growth at 10 µM: -64%
[5]
  growth at 0.1 µM: 110%
[6]
  growth at 100 µM: -44%
[7]
  growth at 0.01 µM: 97%
[8]
  growth at 0.1 µM: 100%
[15]
  growth at 10 µM: 14.9%
[9]
  growth at 100 µM: -93%
[10]
  growth at 0.01 µM: 85%
[11]
  growth at 100 µM: -63%
[16]
  growth at 10 µM: 13.2%
[12]
  growth at 100 µM: -83%
[13]
  growth at 1 µM: 101%
[14]
  growth at 10 µM: -55%

## COc1cc2cc(Oc3ccc(NC(=O)Nc4ccc(Cl)c(C(F)(F)F)c4)cc3)c(C)nc2cc1OC
[17]
  growth at 30 µM: -38%
[18]
  growth at 0.03 µM: 86%
[19]
  growth at 0.003 µM: 108%
[20]
  growth at 3 µM: -15%
[21]
  growth at 0.03 µM: 98%
[22]
  growth at 30 µM: -69%
[23]
  growth at 30 µM: -75%
[24]
  growth at 0.003 µM: 101%
[25]
  growth at 3 µM: 3%
[26]
  growth at 3 µM: -9%
[27]
  growth at 0.003 µM: 96%
[28]
  growth at 0.003 µM: 95%
[29]
  growth at 3 µM: 10%
[30]
  growth at 0.3 µM: 107%
[31]
  growth at 0.03 µM: 82%
[32]
  growth at 0.3 µM: 94%
[33]
  growth at 3 µM: 9%
[34]
  growth at 3 µM: -3%
[35]
  growth at 0.3 µM: 109%

## Cc1nc2cc(O)c(O)cc2cc1Oc1ccc(NC(=O)Nc2ccc(Cl)c(Cl)c2)cc1
[17]
  growth at 30 µM: -16%
[18]
  growth at 0.03 µM: 86%
[19]
  growth at 0.003 µM: 102%
[20]
  growth at 3 µM: 100%
[21]
  growth at 0.03 µM: 98%
[22]
  growth at 30 µM: -25%
[23]
  growth at 30 µM: -25%
[24]
  growth at 0.003 µM: 104%
[25]
  growth at 3 µM: 96%
[26]
  growth at 3 µM: 28%
[27]
  growth at 0.003 µM: 107%
[15]
  growth at 10 µM: 94%
[28]
  growth at 0.003 µM: 104%
[29]
  growth at 3 µM: 86%
[16]
  growth at 10 µM: 85.3%
[30]
  growth at 0.3 µM: 99%
[31]
  growth at 0.03 µM: 89%
[32]
  growth at 0.3 µM: 105%
[33]
  growth at 3 µM: 71%
[34]
  growth at 3 µM: 56%
[35]
  growth at 0.3 µM: 97%
